This is an account of results in patent US6107549A, “Genetically engineered plant resistance to thiazopyr and other pyridine herbicides” (Monsanto Company, priority 1999, dated 2000).

In one assay the target is T1, pyridine-esterase (Oryctolagus cuniculus, UniProt P12337, A196R/H30K).
T1 construct: made in house; host or cells: transgenic tobacco (Samson) and tomato (UC82B) plants, tissue extracts
T1 sequence (P12337 19-565 H30K/A196R): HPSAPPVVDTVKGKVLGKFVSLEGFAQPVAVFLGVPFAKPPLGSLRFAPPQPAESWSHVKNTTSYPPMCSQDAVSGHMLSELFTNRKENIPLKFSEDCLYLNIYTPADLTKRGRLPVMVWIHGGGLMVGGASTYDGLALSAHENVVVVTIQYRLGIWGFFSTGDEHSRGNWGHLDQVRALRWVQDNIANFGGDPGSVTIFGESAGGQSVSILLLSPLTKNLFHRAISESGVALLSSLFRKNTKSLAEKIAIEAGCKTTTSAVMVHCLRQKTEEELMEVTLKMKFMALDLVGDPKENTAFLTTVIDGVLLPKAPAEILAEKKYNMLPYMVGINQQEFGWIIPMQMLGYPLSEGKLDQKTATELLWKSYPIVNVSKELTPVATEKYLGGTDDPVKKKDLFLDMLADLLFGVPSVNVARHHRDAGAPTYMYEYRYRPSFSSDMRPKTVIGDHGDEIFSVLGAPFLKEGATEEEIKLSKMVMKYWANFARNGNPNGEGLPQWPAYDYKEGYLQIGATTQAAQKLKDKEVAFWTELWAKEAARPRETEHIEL
It counts as biochemical, rabbit. As to conditions: tobacco line #37437 extract, FIG. 4. The procedure:
(§1) Esterase activity assays. Esterase activity was measured in vitro by conversion of either [^14 C]thiazopyr or [^14 C]MON 14300 to their corresponding monoacid. Pyridine-esterase activity was assayed during protein purification and from tissue extracts of transgenic plants. The homogenizing buffer for plant tissues consisted of 100 mM Tris pH 8.0, 1 mM EDTA, 1 mM DTT, and 10% glycerol in water. Plant tissues (1 g/ml buffer) including leaves, seeds, flowers, seedlings, etc. were homogenized in conical centrifuge tubes using a spinning pestle at 4° C. Following centrifugation (12,000× g), the supernatant (250 μl) was assayed immediately for esterase activity by incubation with [^14 C]thiazopyr or [^14 C]MON 14300 (4 μg) in 0.1 M Tris pH 8.0 buffer (50 μl) at 37° C. The reaction was sampled (100 μL) at various times (0.5 to 100 hr) to generate a kinetic profile of monoacid formation. The reaction was stopped by addition of 1% trifluoroacetic acid in acetonitrile (v/v, 150 μl). Following centrifugation (12,000× g for 3 min), the supernatant was analyzed by HPLC/RAD (radioactivity detection) to resolve the monoacid from the parent herbicide and other metabolites. Control reactions in the absence of the esterase recovered un-reacted thiazopyr or MON 14300 for the duration of experiments. Esterase activity was also assayed during protein purification following a similar procedure except a single time-point (1-2 hrs) of incubation was selected within the linear range of reaction. In vitro assays also employed three commonly used calorimetric (p-nitrophenyl butyrate) or fluorescent (4-methyl umbelliferyl butyrate and 5-bromo-4-chloro-3-indolylacetate) substrates. These substrates are useful in rapidly and qualitatively detecting general esterase activity.
Tissue extracts from 3 tobacco R1 seedlings were employed for further studies. Two of the lines (#37437 and #37432) expressed high levels of esterase (~0.5%) and one line (#37436) which expressed no pyridine-esterase was used as negative control. Tissue extracts were incubated with [^14 C]MON 14300 and formation of the monoacid monitored with time. […] In comparison, less that 2% monoacid was detected in line (#37436). […] First, pyridine-esterase was capable of driving the hydrolysis reaction to completion with no apparent product inhibition, and second, there was no endogenous esterase activity in tobacco which catalyzed MON 14300 hydrolysis.

The next assay concerns the target T2, RLE3 (Oryctolagus cuniculus, UniProt P12337, A196R/H30K).
T2 construct: 19-residue synthetic ER signal peptide (design based on the homologous rat esterase, Robbi et al. 1990; Ala added after Met) (N); made in house; host or cells: Spodoptera frugiperda SF9 cells, baculovirus
T2 sequence (P12337 with tags, fused parts or gaps H30K/A196R): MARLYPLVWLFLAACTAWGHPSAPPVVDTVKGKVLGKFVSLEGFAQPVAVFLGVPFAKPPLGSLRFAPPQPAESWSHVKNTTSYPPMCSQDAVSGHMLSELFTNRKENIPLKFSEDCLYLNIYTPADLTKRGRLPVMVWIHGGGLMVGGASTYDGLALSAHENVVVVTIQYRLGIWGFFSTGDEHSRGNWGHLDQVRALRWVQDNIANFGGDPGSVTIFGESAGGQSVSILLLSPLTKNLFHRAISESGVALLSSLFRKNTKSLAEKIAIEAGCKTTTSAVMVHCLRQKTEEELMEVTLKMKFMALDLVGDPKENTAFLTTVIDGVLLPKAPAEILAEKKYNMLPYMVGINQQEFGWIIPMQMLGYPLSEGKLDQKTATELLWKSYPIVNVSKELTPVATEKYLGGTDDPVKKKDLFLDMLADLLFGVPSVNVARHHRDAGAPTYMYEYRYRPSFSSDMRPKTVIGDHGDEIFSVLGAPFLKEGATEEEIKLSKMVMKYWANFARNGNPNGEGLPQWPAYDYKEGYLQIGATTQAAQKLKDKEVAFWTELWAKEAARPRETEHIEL
The experiment in a line: Esterase activity of RLE3 cDNA expressed in insect cells. It counts as biochemical, rabbit. As to conditions: culture media from RLE3 cells; esterase inhibitor. Here is the method:
as §1
Expression of RLE1 and RLE3 cDNAs in insect cells. Mature rabbit liver esterases are glycoproteins which reside in the lumen of the endoplasmic reticulum (ER) (Korza et al., 1988). […]

The conditions of assay [1]: Feng et al., 1995b; cited from earlier work.

Read-outs that look alike come from different tables or passages of the source.

In the case of `COC(=O)c1c(Cl)nn(C)c1S(=O)(=O)NC(=O)Nc1nc(OC)cc(OC)n1`, the “hydrolysis by pyridine-esterase (substrate specificity)” value on pyridine-esterase is reported as “little to no hydrolysis”; on pyridine-esterase (listed as halosulfiron), “not”. Take `CSC(=O)c1c(C(F)F)nc(C(F)(F)F)c(C(=O)SC)c1CC(C)C` [Dithiopyr, dithiopyr]: the “hydrolysis by pyridine-esterase (substrate specificity)” value at pyridine-esterase was “not hydrolyzed”. Regarding `O=[N+]([O-])c1ccc(OP(=O)(O)Oc2ccc([N+](=O)[O-])cc2)cc1` [bis(p-nitropheyl) phosphate], at RLE3, the “inactivation of esterase activity” value is recorded as “inactivated”. With `CC(C)Cc1c(C(=O)O)c(C(F)F)nc(C(F)(F)F)c1C1=NCCS1` [monoacid metabolite], the herbicidal activity result in assay [1] is recorded as “virtually devoid of any herbicidal activity”.
